Data: patent US9469615B2, “Quinoxalines and AZA-quinoxalines as CRTH2 receptor modulators” (Merck Sharp & Dohme Corp., priority 2010, dated 2016)

These molecules were tested against T1, hCRTH2 (Homo sapiens, UniProt Q9Y5Y4) (assay: Radioligand binding assay ([3H]PGD2 competition, HEK-hCRTH2 membranes)). Conditions: [3H]PGD2 binding, rated A-E (Table A).
T1 construct: expressed in transfected cells; host or cells: HEK (human embryonic kidney) cells expressing hCRTH2; membrane preparation
T1 sequence (Q9Y5Y4 1-395): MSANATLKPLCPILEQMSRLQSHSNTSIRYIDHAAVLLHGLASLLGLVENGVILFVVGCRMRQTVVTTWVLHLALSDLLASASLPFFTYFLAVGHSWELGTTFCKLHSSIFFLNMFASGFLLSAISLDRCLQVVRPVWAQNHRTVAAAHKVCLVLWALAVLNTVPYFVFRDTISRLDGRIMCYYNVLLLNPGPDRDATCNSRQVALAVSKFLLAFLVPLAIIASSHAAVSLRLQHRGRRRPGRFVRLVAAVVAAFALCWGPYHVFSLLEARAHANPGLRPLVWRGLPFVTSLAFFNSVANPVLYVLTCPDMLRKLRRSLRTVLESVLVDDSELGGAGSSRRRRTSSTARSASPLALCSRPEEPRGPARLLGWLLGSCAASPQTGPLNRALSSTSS
Summary of the method: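 Displacement of 3.0 nM [3H]PGD2 from human CRTH2 expressed in HEK membranes was measured at room temperature over 60 min. Unlabelled PGD2 at 10 μM gave non-specific binding.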

SMILES	Ki [nM]
O=C(O)CCCCc1nc2cc(C(=O)N3CC[C@@H](c4ccccc4)C3)c(F)cc2nc1-c1ccc(Cl)cc1 [compound 24, 3-(4-chlorophenyl)-6-fluoro-7-[(3(S)-phenyl-1-pyrrolidinyl)carbonyl]-2-quinoxalinepentanoic acid]	2.1 to 20
CC(CCCc1nc2cc(C(=O)N3CC[C@@H](c4ccccc4)C3)ccc2nc1-c1ccc(C(F)(F)F)cc1)C(=O)O (stereo partly drawn) [18E, alpha-methyl-7-[(3(S)-phenyl-1-pyrrolidinyl)carbonyl]-3-[4-(trifluoromethyl)phenyl]-2-quinoxalinepentanoic acid]	0.1 to 2
O=C(O)CCCCc1nc2cc(C(=O)NCc3cccc(OC(F)(F)F)c3)ccc2nc1-c1ccc(Cl)cc1 [16AC, 3-(4-chlorophenyl)-7-[[[[3-(trifluoromethoxy)phenyl]methyl]amino]carbonyl]-2-quinoxalinepentanoic acid]	0.1 to 2
O=C(N[C@@H]1CCCc2ccccc21)c1ccc2nc(-c3ccccc3)c(CCCC(F)C(=O)O)nc2c1 (single isomer, unassigned) [38A]	20.1 to 200
O=C(O)CCCCc1nc2cc(C(=O)NCc3ccccc3Cl)ccc2nc1-c1ccccc1 [15V, 5-{7-[(2-chlorobenzyl)carbamoyl]-3-phenylquinoxalin-2-yl}pentanoic acid]	0.1 to 2
O=C(O)CCCCc1nc2cc(C(=O)N3CCC(c4ccccc4)C3)ccc2nc1-c1ccc(C(F)(F)F)cc1 (centres unmarked) [compound 26, 5-(7-(3-Phenylpyrrolidine-1-carbonyl)-3-(4-(trifluoromethyl)phenyl)-quinoxalin-2-yl)pentanoic acid]	0.1 to 2
O=C(O)CCCCc1nc2cc(C(=O)NC3Cc4ccccc4C3)ccc2nc1-c1ccc(Cl)cc1 [16AS, 3-(4-ch1orophenyl)-7-[[(2,3-dihydro-1H-inden-2-yl)amino]carbonyl]-2-quinoxalinepentanoic acid]	0.1 to 2
COc1ccc(-c2nc3ccc(C(=O)N4CCC(c5ccccc5)CC4)cc3nc2CCCCC(=O)O)c(Cl)c1 [26W, 3-(2-chloro-4-methoxyphenyl)-7-[(4-phenyl-1-piperidinyl)carbonyl]-2-quinoxalinepentanoic acid]	0.1 to 2
CC(CCCc1nc2cc(C(=O)N[C@@H](CCO)c3ccccc3)ccc2nc1-c1ccc(F)cc1)C(=O)O (stereo partly drawn) [compound 213, 3-(4-fluorophenyl)-7-[[(3-hydroxy-1(S)-phenylpropyl)amino]carbonyl]-alpha-methyl-2-quinoxalinepentanoic acid]	20.1 to 200

Second part, the molecule after the results:

Ki [nM]	SMILES
0.1 to 2	CC(CCc1nc2cc(C(=O)N3CCC(c4ccccc4)CC3)ccc2nc1-c1ccc(C(F)(F)F)cc1)CC(=O)O (centres unmarked) [17R]
201 to 700	O=C(O)CCCCc1nc2cc(S(=O)(=O)N3CCC(c4ccccc4)CC3)ccc2nc1-c1ccc(Cl)cc1 [compound 25, 5-(3-(4-chlorophenyl)-7-(4-phenylpiperidin-1-ylsulfonyl)quinoxalin-2-yl)pentanoic acid]
2.1 to 20	O=C(O)Cc1cc(F)cc(CCc2nc3cc(C(=O)N4CCC(c5ccccc5)CC4)ccc3nc2-c2ccc(Cl)cc2)c1 [compound 42, 2-(3-(2-(3-(4-chlorophenyl)-7-(4-phenylpiperidine-1-carbonyl)quinoxalin-2-yl)ethyl)-5-fluorophenyl)acetic acid]

Same assay, conditions: [3H]PGD2 competition, Table B

SMILES	Ki [nM]
O=C(O)CCCCc1nc2cc(C(=O)NC3CCCc4cc(C(F)(F)F)cnc43)ccc2nc1-c1ccccc1 (centres unmarked) [compound 502, 5-(3-phenyl-7-((3-(trifluoromethyl)-5,6,7,8-tetrahydroquinolin-8-yl)carbamoyl)quinoxalin-2-yl)pentanoic acid]	20.1 to 200
O=C(O)CCCCc1nc2cc(C(=O)N3CCC(N4CCCCC4)CC3)ccc2nc1-c1ccc(Cl)cc1 [compound 337, 5-(7-([1,4′-bipiperidine]-1′-carbonyl)-3 (4-chlorophenyl)quinoxalin-2-yl)pentanoic acid]	20.1 to 200
C[C@H](CCc1nc2cc(C(=O)N[C@H]3CCCc4ccccc43)ccc2nc1-c1ccccc1)CC(=O)O [compound 277, (R)-3-methyl-5-(3-phenyl-7-(((S)-1,2,3,4-tetrahydronaphthalen-1-yl)carbamoyl)quinoxalin-2-yl)pentanoic acid]	2.1 to 20
CC(CCCc1nc2cc(C(=O)N[C@@H]3CCCc4cc(Cl)ccc43)ccc2nc1-c1ccc(F)cc1)C(=O)O (stereo partly drawn) [compound 455, 5-(7-(((R)-6-chloro-1,2,3,4-tetrahydronaphthalen-1-yl)carbamoyl)-3-(4-fluorophenyl)quinoxalin-2-yl)-2-methylpentanoic acid]	2.1 to 20
O=C(O)CCCCc1nc2cc(C(=O)N[C@H]3CCOc4cc(F)ccc43)ccc2nc1-c1ccccc1 [compound 310, (S)-5-(7((7-fluorochroman-4-yl)carbamoyl)-3-phenylquinoxalin-2-yl)pentanoic acid]	2.1 to 20
CC(CCCc1nc2cc(C(=O)N[C@@H]3CCCc4cc(F)ccc43)ccc2nc1-c1ccccc1)C(=O)O (stereo partly drawn) [compound 459, 5-(7-(((R)-6-fluoro-1,2,3,4-tetrahydronaphthalen-1-yl)carbamoyl)-3-phenylquinoxalin-2-yl)-2-methylpentanoic acid]	2.1 to 20
O=C(O)CCCCc1nc2cc(C(=O)N[C@@H]3CCSc4ccccc43)ccc2nc1-c1ccc(Cl)cc1 [compound 569, (R)-5-(3-(4-chlorophenyl)-7-(thiochroman-4-ylcarbamoyl)quinoxalin-2-yl)pentanoic acid]	0.1 to 2
C[C@H](NC(=O)c1ccc2nc(-c3ccc(F)cc3)c(CCCCC(=O)O)nc2c1)c1ccc(F)cn1 [compound 472, (S)-5-(3-(4-fluorophenyl)-7-((1-(5-fluoropyridin-2-yl)ethyl)carbamoyl)quinoxalin-2-yl)pentanoic acid]	20.1 to 200
C[C@@H]1CN(c2ccc(F)cc2)CCN1C(=O)c1ccc2nc(-c3ccc(F)cc3)c(CCCCC(=O)O)nc2c1 [compound 489, (R)-5-(3-(4-fluorophenyl)-7-(4-(4-fluorophenyl)-2-methylpiperazine-1-carbonyl)quinoxalin-2-yl)pentanoic acid]	2.1 to 20
CN1CC2(CCN(C(=O)c3ccc4nc(-c5ccc(Cl)cc5)c(CCCCC(=O)O)nc4c3)CC2)CC1=O [compound 349, 5-(3-(4-chlorophenyl)-7-(2-methyl-3-oxo-2,8-diazaspiro[4.5]decane-8-carbonyl)quinoxalin-2-yl)pentanoic acid]	20.1 to 200
O=C(N[C@@H]1CCCc2ccccc21)c1ccc2nc(-c3ccc(F)cc3)c(CCCC(F)(F)C(=O)O)nc2c1 [compound 486, (R)-2,2-difluoro-5-(3-(4-fluorophenyl)-7-((1,2,3,4-tetrahydronaphthalen-1-yl)carbamoyl)quinoxalin-2-yl)pentanoic acid]	2.1 to 20

The next lines start with the values.

Ki [nM]	SMILES
20.1 to 200	O=C(O)CCCCc1nc2cc(C(=O)N3CCN(c4ccccc4)C(=O)C3)ccc2nc1-c1ccccc1 [compound 350, 5-(7-(3-oxo-4-phenylpiperazine-1-carbonyl)-3-phenylquinoxalin-2-yl)pentanoic acid]
2.1 to 20	O=C(O)CCCCc1nc2cc(C(=O)N3CCN(c4ncccc4Cl)CC3)ccc2nc1-c1ccc(Cl)cc1 [compound 676, 5-(3-(4-chlorophenyl)-7-(4-(3-chloropyridin-2-yl)piperazine-1-carbonyl)quinoxalin-2-yl)pentanoic acid]
2.1 to 20	C[C@H]1CN(c2ccccc2)CCN1C(=O)c1ccc2nc(-c3ccc(F)cc3)c(CCCCC(=O)O)nc2c1 [compound 515, (S)-5-(3-(4-fluorophenyl)-7-(2-methyl-4-phenylpiperazine-1-carbonyl)quinoxalin-2-yl)pentanoic acid]
20.1 to 200	O=C(O)CCCCc1nc2cc(C(=O)N3CCCCC3c3ccccn3)ccc2nc1-c1ccc(Cl)cc1 (centres unmarked) [compound 647, 5-(3-(4-chlorophenyl)-7-(2-(pyridin-2-yl)piperidine-1-carbonyl)quinoxalin-2-yl)pentanoic acid]
2.1 to 20	Cc1cccc(N2CCN(C(=O)c3ccc4nc(-c5ccc(F)cc5)c(CCCCC(=O)O)nc4c3)CC2)c1 [compound 366, 5-(3-(4-fluorophenyl)-7-(4-(m-tolyl)piperazine-1-carbonyl)quinoxalin-2-yl)pentanoic acid]
0.1 to 2	O=C(O)CCCCc1nc2cc(C(=O)N3CCN(c4cccc(C(F)(F)F)c4)CC3)ccc2nc1-c1ccc(Cl)cc1 [compound 610, 5-(3-(4-chlorophenyl)-7-(4-(3-(trifluoromethyl)phenyl)piperazine-1-carbonyl)quinoxalin-2-yl)pentanoic acid]
2.1 to 20	C[C@@H]1CN(c2ccc(F)cc2)CCN1C(=O)c1ccc2nc(-c3ccc(Cl)cc3)c(CCCCC(=O)O)nc2c1 [compound 488, (R)-5-(3-(4-chlorophenyl)-7-(4-(4-fluorophenyl)-2-methylpiperazine-1-carbonyl)quinoxalin-2-yl)pentanoic acid]
2.1 to 20	O=C(O)CCCCc1nc2cc(C(=O)N3CCCC3c3ccccc3)ccc2nc1-c1ccc(Cl)cc1 (centres unmarked) [compound 646, 5-(3-(4-chlorophenyl)-7-(2-phenylpyrrolidine-1-carbonyl)quinoxalin-2-yl)pentanoic acid]
201 to 700	O=C(O)Cc1cccc(-c2nc3cc(C(=O)N4CCN(c5ccccc5)CC4)ccc3nc2-c2ccc(Cl)cc2)c1 [compound 259, 2-(3-(3-(4-chlorophenyl)-7-(4-phenylpiperazine-1-carbonyl)quinoxalin-2-yl)phenyl)acetic acid]
